ChEMBL document CHEMBL1133141, “Synthesis and biological activities of hapalosin derivatives with modification at the C12 position” (2000)

Legend:
A2780 = experiment: MDR-reversing activity was measured by vincristine accumulation in the multidrug resistant 2780AD, a subline of A2780 ovarian carcinoma cells at 10 µg/mL
HT-1080 = experiment: Compound was tested for the induction of apoptosis in human fibrosarcoma HT1080 cell line; No induction of apoptosis up to 10 ug/mL; assay type: functional, cell-based

COc1ccc(CCN(C)CCCC(C#N)(c2ccc(OC)c(OC)c2)C(C)C)cc1OC (stereo not drawn) [VERAPAMIL]
Vincristine accumulation (% of control) (A2780): 350%

CCCCCCC[C@H]1OC(=O)C[C@@H](O)[C@H](Cc2ccccc2)N(C)C(=O)[C@H](C(C)C)OC(=O)[C@H]1C [HAPALOSIN]
Concentration (HT-1080): No induction | Vincristine accumulation (% of control) (A2780): 267%

CCCCCCC[C@H]1OC(=O)C[C@@H](O)[C@H](Cc2ccccc2)N(C)C(=O)[C@H](C(C)CC)OC(=O)[C@H]1C (stereo partly drawn)
Concentration (HT-1080): No induction | Vincristine accumulation (% of control) (A2780): 308%

CCCCCCC[C@H]1OC(=O)C[C@@H](O)[C@H](Cc2ccccc2)N(C)C(=O)[C@H](CCSC)OC(=O)[C@H]1C
Concentration (HT-1080): No induction | Vincristine accumulation (% of control) (A2780): 269%

CCCCCCC[C@H]1OC(=O)C[C@@H](O)[C@H](Cc2ccccc2)N(C)C(=O)[C@H](Cc2ccccc2)OC(=O)[C@H]1C
Concentration (HT-1080): No induction | Vincristine accumulation (% of control) (A2780): 254%

CCCCCCC[C@H]1OC(=O)C[C@@H](O)[C@H](Cc2ccccc2)N(C)C(=O)[C@H](CC(C)C)OC(=O)[C@H]1C
Concentration (HT-1080): No induction | Vincristine accumulation (% of control) (A2780): 288%

CCCCCCC[C@H]1OC(=O)C[C@@H](O)[C@H](Cc2ccccc2)N(C)C(=O)[C@H](C)OC(=O)[C@H]1C
Concentration (HT-1080): No induction | Vincristine accumulation (% of control) (A2780): 441%
